For 17 compounds, IC50 and inhibition results are on record in patent publication US9078899B2, “Pyrazolyl-based carboxamides II” (Grünenthal GmbH, priority 2013, dated 2015).

In test [1] the test system is Interleukin-2 (IL-2) production/release. The experiment in a line: Jurkat IL-2 Production Assay. In kind it is cell-based. Particulars: Homo sapiens; Jurkat T cells clone E6-1, 15 μg/ml PHA for 22 hours, IL-2 in supernatant. How it is done: Jurkat IL-2 Production Assay
The effect of compounds of the invention on Interleukin-2 (IL-2) production/release was tested in the Jurkat T cell line (ECACC) clone E6-1.
Jurkat T cells were cultured in DMEM/F12/Glutamax (Gibco) containing 10% FCS (Gibco), and maintained at 37° C., 5% CO2. Cell were split twice a week [5*10^6 (Mon-Thu) and 1*10^7 (Thu-Mon) cells/50 ml medium in T-175 ZK culture flasks, respectively].
Prior to experiment, cells were seeded on 96 well plates (Cellstar 96 Well; Cat No. 655180, Greiner bio-one) at a density of 5*10^5 cells/well in DMEM/F12/Glutamax (Gibco) containing 10% FCS (Gibco), and incubated for 60 min at 37° C., 5% CO2. Subsequently, compounds were added and cells were allowed to incubate for 30 min at 37° C., 5% CO2. Cells were then stimulated with 15 μg/ml Phytohemagglutinin (PHA; Sigma) for 22 hours at 37° C., 5% CO2.
Before sampling of the supernatants, cells were spun down (200*g/5 min/RT). The amount of IL-2 released into the supernatant was quantified with the human IL-2 AlphaLisa kit (Perkin Elmer) according to manufacturer's instructions. Luminescence proximity measurements were carried out in the Synergy H4 reader (BioTek) employing the fluorescence setting of the reader (ex: 680/30 nm; em: 620/40 nm).
Inhibition of IL-Production/Release in/from Jurkat T Cells was Quantified as Follows:
Zero percent inhibition (MAX) was defined as the [IL-2] determined in supernatants derived from cells to which PHA & DMSO-only had been added instead of compound. Hundred percent inhibition (MIN) was defined as the [IL-2] determined in supernatants derived from cells that had been pre-treated with 1 μM CyclosporineA (Sigma) before the addition of 15 μg/ml PHA.
For routine IC50 determinations of compounds, 8 concentrations of a serial dilution (1:3.16) were tested, starting off from 10 μM.

For a further test, the target named is T1, CRAC channel (Homo sapiens, UniProt Q96D31).
T1 construct: host or cells: HEK293
T1 sequence (Q96D31 whole entry): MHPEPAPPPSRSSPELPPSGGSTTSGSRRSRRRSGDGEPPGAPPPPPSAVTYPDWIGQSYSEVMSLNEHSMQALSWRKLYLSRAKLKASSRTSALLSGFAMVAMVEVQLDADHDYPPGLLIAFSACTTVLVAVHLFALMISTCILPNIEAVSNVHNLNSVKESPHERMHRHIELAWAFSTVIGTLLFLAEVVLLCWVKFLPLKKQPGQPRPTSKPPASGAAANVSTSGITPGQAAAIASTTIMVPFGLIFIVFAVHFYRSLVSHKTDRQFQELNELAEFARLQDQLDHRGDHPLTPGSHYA
The experiment in a line: HEK Calcium Influx Assay (FLIPR). In kind it is cell-based. To be noted: 10 μM; endogenous SOC in HEK293 cells, thapsigargin store depletion, Ca2+ signal 9.5-10 min post-administration; read-out: % inhib.[@ 10 μM] FLIPR. How it is done:
The effect of compounds of the invention on intracellular [Ca^2+] was tested in the HEK293 cell line (ECACC).
HEK293 cells were cultured in DMEM/F12/Glutamax (Gibco) containing 10% FCS (Gibco), and maintained at 37° C., 5% CO2. Cell were split twice a week [3*10^6 (Mon-Thu) and 1*10^6 (Thu-Mon) cells/50 ml medium in T-175 ZK culture flasks, respectively]. Twenty four hours pre-experiment, cells were seeded on 96 well plates (Poly-D-Lysine 96well Black/Clear Plate, BD Biocoat REF 356640) at a density of 40,000 cells/well in DMEM/F12 (Gibco) containing 10% FCS (Gibco), and maintained at 37° C., 5% CO2.
Prior to store-depletion, cell culture medium was removed and cells were loaded with the a Calcium-sensitive fluorescent dye comprised within the Calcium-4-assay kit (Molecular Devices) in nominally Ca^2+-free HBS buffer (140 mM NaCl, 4 mM KCl, 0.2 mM MgCl2, 11 mM D-glucose, and 10 mM HEPES, pH 7.4) according to manufacturer's instruction for 60 min at 37° C., 5% CO2.
Passive depletion of intracellular Ca^2+-stores was then triggered by employing the SERCA inhibitor thapsigargin (2 μM final) for 10 min in the dark (RT). To prevent immediate Ca^2+-entry via the activated Store-operated channels (SOCs), cells were maintained in Ca^2+-free HBS buffer comprising 100 μM EGTA during store-depletion.
Intracellular changes in [Ca^2+] were subsequently monitored with the FLIPR device (Molecular Devices). In brief, baseline imaging post-store depletion was allowed for 1 min before adjusting the extracellular buffer to 3 mM CaCl2. Increases in intracellular [Ca^2+] due to pre-activated SOC channels were monitored for 15 min until intracellular Ca^2+ levels had declined into a steady-state. Finally, compounds were administered and Ca^2+ signals were recorded for additional 10 min.
Inhibition of endogenous SOC in HEK293 cells was quantified employing the average Ca^2+ signal measured from 9.5-10 min post-administration. Zero percent inhibition (MAX) was defined as the Ca^2+ signal recorded from wells to which DMSO-only had been added instead of compound. Hundred percent inhibition (MIN) was defined as the signal obtained from wells in which cells haven't been treated with TG prior to Ca^2+ addition and to which DMSO-only had been added instead of compound. For routine IC50 determinations of compounds, 8 concentrations of a serial dilution (1:3.16) were tested, starting off from 10 μM. Reliable IC50's could consequently be determined only, if they were at least sub 2.5-3 μM.

What is called IC50 is the point on the concentration scale where inhibition reaches its midpoint. Regarding `COc1cc(F)c(NC(=O)c2cc(-c3cc(OC)ccc3OC)n(C)n2)c(F)c1` [Example 31, N-(2,6-Difluoro-4-methoxy-phenyl)-5-(2,5-dimethoxyphenyl)-1-methyl-1H-pyrazole-3-carboxylic acid amide], the IC50 in test [1] was less than 0.5 µM. Moreover, on CRAC channel, the inhibition at 10 µM was more than 70%.

As for `COc1ccc(OC)c(-c2cc(C(=O)Nc3c(C)cccc3F)nn2C)c1` [Example 32, 5-(2,5-Dimethoxyphenyl)-N-(2-fluoro-6-methyl-phenyl)-1-methyl-1H-pyrazole-3-carboxylic acid amide], in test [1], the half-maximal inhibitory concentration (IC50) was less than 0.5 µM. Besides, the inhibition at 10 µM at CRAC channel was more than 70%.

For the compound `COc1ccc(OC)c(-c2cc(C(=O)Nc3c(F)cncc3F)nn2C)c1` [Example 34, N-(3,5-Difluoro-pyridin-4-yl)-5-(2,5-dimethoxyphenyl)-1-methyl-1H-pyrazole-3-carboxylic acid amide], the 50% inhibitory concentration (IC50) in test [1] is less than 0.5 µM. In addition, the inhibition at 10 µM at CRAC channel was more than 70%.

`COc1ccc(OC)c(-c2cc(C(=O)Nc3c(F)cccc3Cl)nn2C)c1` [Example 35, N-(2-Chloro-6-fluoro-phenyl)-5-(2,5-dimethoxyphenyl)-1-methyl-1H-pyrazole-3-carboxylic acid amide]: in test [1], the IC50 was less than 0.5 µM. For the same compound, the inhibition at 10 µM at CRAC channel is more than 70%.

In the case of `Cn1nc(C(=O)Nc2c(F)cccc2F)cc1-c1cc(C(F)(F)F)ccc1Cl` [Example 36, 5-[2-Chloro-5-(trifluoromethyl)-phenyl]-N-(2,6-difluoro-phenyl)-1-methyl-1H-pyrazole-3-carboxylic acid amide], the IC50 in test [1] was less than 0.5 µM. In addition, at CRAC channel, the inhibition at 10 µM was more than 70%.

In the case of `COc1ccc(OC)c(-c2c(Cl)c(C(=O)Nc3c(F)cccc3F)nn2C)c1` [Example 39, 4-Chloro-N-(2,6-difluoro-phenyl)-5-(2,5-dimethoxyphenyl)-1-methyl-1H-pyrazole-3-carboxylic acid amide], the IC50 in test [1] was less than 0.5 µM. Further, the inhibition at 10 µM at CRAC channel is more than 70%.

Turning to `COc1ccc(OC)c(-c2c(Cl)c(C(=O)Nc3ccncc3F)nn2C)c1` [Example 40, 4-Chloro-5-(2,5-dimethoxyphenyl)-N-(3-fluoro-pyridin-4-yl)-1-methyl-1H-pyrazole-3-carboxylic acid amide], the IC50 in test [1] lay within 1 to 5 µM. Also, the inhibition at 10 µM at CRAC channel is more than 70%.

Consider `CCc1c(C(=O)Nc2c(F)cccc2F)nn(C)c1-c1cc(OC)ccc1OC` [Example 42, N-(2,6-Difluoro-phenyl)-5-(2,5-dimethoxyphenyl)-4-ethyl-1-methyl-1H-pyrazole-3-carboxylic acid amide], for which, in test [1], the IC50 was 1 to 5 µM. Further, on CRAC channel, the inhibition at 10 µM lay in the range of 50 to 70%.

For `COc1ccc(OC)c(-c2c(CO)c(C(=O)Nc3c(F)cccc3F)nn2C)c1` [Example 43, N-(2,6-Difluoro-phenyl)-5-(2,5-dimethoxyphenyl)-4-(hydroxymethyl)-1-methyl-1H-pyrazole-3-carboxylic acid amide], the half-inhibitory concentration (IC50) in test [1] was 1 to 5 µM. Further, on CRAC channel, the inhibition at 10 µM is less than 50%.

In the case of `COc1ccc(OC)c(-c2c(N)c(C(=O)Nc3c(F)cccc3F)nn2C)c1` [Example 44, 4-Amino-N-(2,6-difluoro-phenyl)-5-(2,5-dimethoxyphenyl)-1-methyl-1H-pyrazole-3-carboxylic acid amide], in test [1], the IC50 lay within 1 to 5 µM. Besides, the inhibition at 10 µM on CRAC channel lay within 50 to 70%.

For the compound `Cn1nc(C(=O)Nc2c(F)cccc2F)cc1-c1cc(OC(F)(F)F)ccc1C1CC1` [Example 45, 5-[2-Cyclopropyl-5-(trifluoromethyloxy)-phenyl]-N-(2,6-difluoro-phenyl)-1-methyl-1H-pyrazole-3-carboxylic acid amide], the IC50 in test [1] lay in the range of 0.5 to 1 µM. Further, the inhibition at 10 µM on CRAC channel is more than 70%.

For the compound `Cn1nc(C(=O)Nc2c(F)cncc2F)cc1-c1cc(OC(F)(F)F)ccc1C1CC1` [Example 46, 5-[2-Cyclopropyl-5-(trifluoromethyloxy)-phenyl]-N-(3,5-difluoro-pyridin-4-yl)-1-methyl-1H-pyrazole-3-carboxylic acid amide], the half-inhibitory concentration (IC50) in test [1] was less than 0.5 µM. For the same compound, the inhibition at 10 µM at CRAC channel is more than 70%.

Consider `Cn1nc(C(=O)Nc2ccncc2F)cc1-c1cc(OC(F)(F)F)ccc1C1CC1` [Example 47, 5-[2-Cyclopropyl-5-(trifluoromethyloxy)-phenyl]-N-(3-fluoro-pyridin-4-yl)-1-methyl-1H-pyrazole-3-carboxylic acid amide], for which, in test [1], the IC50 lay in the range of 1 to 5 µM. Besides, the inhibition at 10 µM on CRAC channel is more than 70%.

`Cn1nc(C(=O)Nc2c(F)cncc2F)cc1-c1c(F)cccc1C(F)(F)F` [Example 49, N-(3,5-Difluoro-pyridin-4-yl)-5-[2-fluoro-6-(trifluoromethyl)-phenyl]-1-methyl-1H-pyrazole-3-carboxylic acid amide]: in test [1], the IC50 lay within 1 to 5 µM. Further, at CRAC channel, the inhibition at 10 µM is more than 70%.

With `Cn1nc(C(=O)Nc2c(F)cccc2F)cc1-c1c(F)cccc1C(F)(F)F` [Example 51, N-(2,6-Difluoro-phenyl)-5-[2-fluoro-6-(trifluoromethyl)-phenyl]-1-methyl-1H-pyrazole-3-carboxylic acid amide], the IC50 in test [1] fell in the range of 1 to 5 µM. In addition, the inhibition at 10 µM at CRAC channel was in the range of 50 to 70%.

In the case of `COc1cc(S(C)(=O)=O)ccc1-c1cc(C(=O)Nc2c(F)cccc2F)nn1C` [Example 66, N-(2,6-Difluoro-phenyl)-5-(2-methoxy-4-methylsulfonyl-phenyl)-1-methyl-1H-pyrazole-3-carboxylic acid amide], the IC50 in test [1] was in the range of 1 to 5 µM. Besides, the inhibition at 10 µM at CRAC channel is less than 50%.

`CNc1c(C(=O)Nc2c(F)cncc2F)nn(C)c1-c1cc(OC)ccc1OC` [Example 67, N-(3,5-Difluoro-pyridin-4-yl)-5-(2,5-dimethoxyphenyl)-1-methyl-4-methylamino-1H-pyrazole-3-carboxylic acid amide]: the half-maximal inhibitory concentration (IC50) in test [1] lay in the range of 1 to 5 µM. Moreover, the inhibition at 10 µM at CRAC channel is less than 50%.
